Test results reported in patent publication US8232315B2, “Methods for treating drug addiction and improving addiction-related behavior” (SK Biopharmaceuticals Co., Ltd., priority 2009, dated 2012).

Test system: monkeys trained to discriminate cocaine (0.40 mg/kg) from saline
Assay: Cocaine drug discrimination (substitution protocol) in rhesus monkeys
Assay type: in vivo, rhesus monkeys (Macaca mulatta)
Settings: 0.40 mg/kg cocaine i.m.; training days preceding test days
Source text: Subjects: The subjects were four male rhesus monkeys (Macaca mulatta) each weighing 7.0-8.0 kg. Each monkey was maintained on a diet of 7-12 monkey biscuits (Purina Monkey Chow Jumbo #5037) and one piece of fresh fruit per day. During the week, all food was delivered after the experimental session, whereas on weekends, food was delivered between 9 a.m. and noon. Water was freely available at all times. The room in which the monkeys were housed was maintained on a 12-hr light/dark cycle, with lights on from 7 a.m. to 7 p.m.
Apparatus: Each monkey was housed individually in a well-ventilated, stainless steel chamber (56×71×69 cm). The home cages of all monkeys were modified to include an operant panel (28×28 cm) mounted on the front wall. Three square translucent response keys (6.4×6.4 cm) were arranged 2.54 cm apart in a horizontal row 3.2 cm from the top of the operant panel. Each key could be transilluminated by red or green stimulus lights (Superbright LED'S). In addition, the operant panel supported an externally mounted pellet dispenser (Gerbrands, Model G53 10, Arlington, Mass.) that delivered 1 gm fruit-flavored food pellets (Precision Primate Pellets Formula L/I Banana Flavor, P. J. Noyes Co., Lancaster, N.H.) to a food receptacle mounted on the cage beneath the operant response panel. Operation of the operant panels and data collection were accomplished with IBM-compatible computers and interface systems (MedAssociates; St. Albans, Vt.) located in a separate room.
Discrimination Training: Discrimination training was conducted 5 days per week during daily sessions composed of multiple cycles. Each cycle consisted of a 15-min time-out period followed by a 5-min response period. During the time-out, all stimulus lights were off, and responding had no scheduled consequences. During the response period, the right and left response keys were transilluminated red or green, and monkeys could earn up to 10 food pellets by responding under a FR 30 schedule of food presentation. For all four monkeys in this study, the left key was illuminated green, and the right key was illuminated red. The center key was not illuminated at any time, and responding on the center key had no scheduled consequences. If all available food pellets were delivered before the end of the 5-min response period, the stimulus lights transilluminating the response keys were turned off, and responding had no scheduled consequences for the remainder of the 5-min period.
On training days, monkeys were given an i.m. injection of either saline or 0.40 mg/kg cocaine 5-min after the beginning of each time-out period (i.e., 10 min before the response period). Following the administration of saline, responding on only the green key (the saline-appropriate key) produced food, whereas following administration of 0.40 mg/kg cocaine, only responding on the red key (the drug-appropriate key) produced food. Responses on the inappropriate key reset the FR requirement on the appropriate key. Sessions consisted of 1 to 5 cycles, and if the training dose of cocaine was administered, it was administered only during the last cycle. Thus, training days consisted of 0 to 5 saline cycles followed by 0 to 1 drug cycles.
During each response period, 3 dependent variables were determined using the following equations.
1) Percent injection-appropriate responding prior to delivery of the first reinforcer.
2) Percent injection-appropriate responding for the entire response period.
Monkeys were considered to have acquired cocaine discrimination when the following three criteria were met for 7 of 8 consecutive training sessions: 1) the percent injection-appropriate responding prior to delivery of the first reinforcer was greater than or equal to 80% for all cycles; 2) the percent injection-appropriate responding for the entire cycle was greater than or equal to 90% for all cycles; 3) response rates during saline training cycles were greater than 0.5 responses per second. […]

COC(=O)[C@H]1[C@@H](OC(=O)c2ccccc2)C[C@@H]2CC[C@H]1N2C [cocaine, reference compound]
Mean response rate during drug training cycles: 2.58 (±0.67) responses/sec
